These results are taken from patent US20150297639A1, “TREATING CANCER” (Rhode Island Hospital, A Lifespan-Partner, priority 2012, published 2015).

Experiment [1] relates to DU145 cell line. As to conditions: DU145 cell line treated with 9NC; cited from earlier work.
In experiment [2] the test system is DU145 cells. As to the kind of experiment: PARP cleavage Western blot, DU145 cells treated with CPT. As to conditions: 100 nM CPT 24 hours, vs untreated control cells. The experiment is classed as cell-based, human. The protocol: FIGS. 1A-D are a series of photomicrographs and bar graphs showing ECV-mediated reversal of apoptosis resistance and sensitivity. A, B. ECVs were isolated from DU145 S and DU145 R prostate cells. The ECVs were resuspended in PBS. DU145 S cells were co-cultured with DU145 R ECVs and DU145 R cells were co-cultured with DU145 S ECVs. Non-ECV and ECV co-cultured cells were treated with 100 nM of the anticancer agent camptothecin (CPT) for 24 hours and examined for PARP cleavage and actin via Western blot analysis to measure apoptosis. C, D. The same experiment from A and B was repeated and the samples were examined for apoptosis via propidium iodide staining using a flow cytometer. […]
Total cell extracts were prepared as previously described, and protein concentrations of lysates were determined using a Bradford assay kit (BioRad). […] Proteins recognized by antibodies were detected by enhanced chemilluminescence reagents (GE Healthcare).
To investigate the effects of ECV-mediated transfer of chemoresistance in prostate cancer, the mechanism of resistance to camptothecin (CPT) was studied in human prostate cancer cell lines. […] After six days, both groups were treated with CPT, cells were harvested and analyzed for apoptosis via Poly ADP Ribose Polymerase (PARP) cleavage. […] The same experiment was repeated, and the cells were analyzed for apoptosis via flow cytometry.
For orientation: Immunoblotting shows a protein as a band on a membrane.

In experiment [3] the test system is MCF7 breast cancer cells. As to the kind of experiment: PARP cleavage Western blot, MCF7 cells treated with Dox. The following applies: Dox 24 hours. It counts as cell-based, human. The protocol: (§1) FIG. 8 is a photomicrograph showing MCF7 and MDR breast cancer cells treated with the indicated doses of doxorubicin (Dox) for 24 hours. Western blot analysis was performed to measure the cleavage of PARP (an indicator of apoptosis induction).
(§2) The transfer of chemosensitivity of MCF7 (sensitive) and MCF/MDR (resistant) (MDR) breast cancer cells that are sensitive or resistant, respectively to doxorubicin (Dox) was explored. These cells, similar to the prostate cancer cells, were grown in medium with serum that was depleted of ECVs.

The test system of experiment [4] is MDR breast cancer cells. As to the kind of experiment: PARP cleavage Western blot, MDR cells treated with Dox. The experiment is classed as cell-based, human. As to conditions: Dox 24 hours. The protocol: as §1
FIG. 9 is a photomicrograph of a Western blot analysis for PARP cleavage and actin in protein lysates isolated from MDR (resistant) cells that were co-cultured with MCF7 (sensitive) ECVs for three days then treated with the indicated concentrations of Dox.
as §2
A reciprocal experiment was performed and ECVs from MCF-7 (sensitive) cells were isolated and co-cultured with MDR (resistant) cells for three days. The MDR (resistant) cells were treated with two doses of Dox.

Experiment [5] has as its system MCF-7 cells. As to the kind of experiment: Apoptosis by flow cytometry, MCF-7 cells treated with Dox. The experiment is classed as cell-based, human. The following applies: 10 nM Dox 24 hours. The protocol: FIG. 10 is a bar graph showing the amount of apoptosis in MCF-7 cells that were treated with 10 nM Dox for 24 hours in the presence or absence of MDR ECVs. Cells were harvested and apoptosis measured by flow cytometry. A paired t-test was performed * comparing Dox-treated MCF7 cells and MCF7 cells co-cultured with MDR ECVs. * A paired t-test (p<0.0005) was performed comparing the reduction in soft agar colony formation between Dox treated and MCF7+MDR ECVs+Dox.
The reciprocal experiment from FIG. 9 was performed, and ECVs were isolated from MDR (resistant) cells and co-cultured with MCF7 (sensitive) cells for three days and treated with 10 nM Dox. The cells were analyzed for apoptosis induction by flow cytometry.
(A flow cytometer gives signals particle by particle.)

As to `CC[C@@]1(O)C(=O)OCc2c1cc1n(c2=O)Cc2cc3c([N+](=O)[O-])cccc3nc2-1` [9NC, 9-nitrocamptothecin], the apoptosis result in experiment [1] is listed as “extensive apoptosis”.

On to `CC[C@@]1(O)C(=O)OCc2c1cc1n(c2=O)Cc2cc3ccccc3nc2-1` [CPT, camptothecin], for which, in experiment [2], the PARP cleavage result is given as “increase in PARP cleavage”. For the compound `COc1cccc2c1C(=O)c1c(O)c3c(c(O)c1C2=O)C[C@@](O)(C(=O)CO)C[C@@H]3O[C@H]1C[C@H](N)[C@H](O)[C@H](C)O1` [Dox, doxorubicin], the “apoptosis measured by cleavage of PARP” value in experiment [3] is recorded as “sensitive to dose-dependent induction of apoptosis”; in experiment [4], “remained resistant”. Besides, in experiment [5], the apoptosis entry is “underwent significant apoptosis”.
